# Experimental data: article PMC9115111, “Metalloprotease Gp63-Targeting Novel Glycoside Exhibits Potential Antileishmanial Activity” (Frontiers in Cellular and Infection Microbiology, 2022)
# Key:
# [1] = tested on: L. donovani promastigotes (AG83 strain); assay: LDH cytotoxicity assay on promastigotes, AG83 strain; format: cell-based, Leishmania donovani
# Description: Promastigote forms of L. donovani (MHOM/IN/1983/AG83) were cultured at 26°C in M199 (GIBCO, India), pH 7.4, supplemented with 10% (v/v) inactivated fetal bovine serum (FBS, GIBCO, India) and 0.02 mg/ml gentamycin (Life Technologies, USA). The clinical isolate of PKDL, BS12, was obtained as a gift from Prof. Mitali Chatterjee [Department of Pharmacology, Institute of Postgraduate Medical Education and Research (IPGMER), Kolkata, India]. BS12 was routinely cultured at 22°C in M199 (GIBCO, India) with 100 U/ml penicillin-streptomycin (Gibco, Invitrogen, Thermo Fisher Scientific, NY, USA), 8 μM hemin (4 mM stock made in 50% triethanolamine) (Sigma, USA), 25 mM 4-(2-hydroxyethyl)-1-piperazineethanesulfonic acid (HEPES), supplemented with 10% heat-inactivated FBS (GIBCO, India). Cultures were maintained between 10^6 and 10^7 cells/ml for continuous exponential growth. In addition, 1 × 10^6 cells/ml parasite count was constantly maintained for all the experiments ([Ramu et al., 2017]).
# (§1) All the compounds were dissolved in dimethyl sulfoxide (DMSO) (Sigma-Aldrich) for 1 mM stock solution and were screened against promastigotes at a concentration of 5 µM. For Glycosides (Gly) 2, 6, and 8, a range of concentrations starting from 100 nM to 100 µM were screened against promastigote forms of parasite and mammalian cells. Parasites (AG83 and PKDL strain) treated with amphotericin B (3 µg/ml) (Sigma-Aldrich) were maintained as the positive control.
# AG83 strain of L. donovani were exposed to various Gly compound concentrations (100 nM–100 µM) in a 96-well microtiter plate (100 µl/well volume) and were incubated for 72 h at 26°C. Finally, lactate dehydrogenase (LDH) cytotoxic assay was performed as per standard protocol (CytoTox 96 Non-Radioactive Cytotoxicity Assay-Promega, USA). The percent cytotoxicity of test compounds was calculated by normalizing with amphotericin B as 100%. Further percentage growth inhibition was calculated using the formula:
# % Growth Inhibition = Gly treated LDH activity- Spontaneous LDH activity
# /Maximum LDH activity- Spontaneous LDH activity * 100
# As per the formula, the spontaneous LDH Activity = activity of the untreated cells and the maximum LDH activity = activity of the amphotericin B-treated cells. IC50 value for Gly2, 6, and 8 treated was generated for AG83 and PKDL strain of L. donovani using sigmoidal dose–response model with nonlinear regression tool ([Ramu et al., 2017]).
# [2] = tested on: J774.A1 murine macrophage cells; assay: MTT cell viability assay on macrophages; format: cell-based
# Description: (§2) The J774.A1 murine macrophage cells were grown in Roswell Park Memorial Institute (RPMI) 1640 medium in the presence of 10% (v/v) FBS and 100 U/ml penicillin−100 µg/ml streptomycin (Gibco, Invitrogen, Thermo Fisher Scientific, NY, USA) at 37°C (humidified) and 5% CO2. […] Madin–Darby canine kidney (MDCK) cells were obtained from the National Centre for Cell Science, Pune, India. MDCK cells were derived from the kidney tissue of an adult female Cocker Spaniel. These were grown in Dulbecco’s modified Eagle’s minimal essential medium (DMEM) in the presence of 10% (v/v) FBS and 100 U/ml penicillin−100 µg/ml streptomycin (Gibco, Invitrogen, Thermo Fisher Scientific, NY, USA) at 37°C (humidified) and 5% CO2 ([Ayana et al., 2018]; [Shivappagowdar et al., 2021]).
# as §1
# (§3) To evaluate the cytotoxic effects of 12 compounds on L. donovani promastigotes, LDH assay was performed. This assay involves the reduction of tetrazolium salts to formazan during LDH-mediated catalysis of lactate to pyruvate, which can be detected at […]. Rate of formazan formation is proportional to the release of LDH through damaged cell membranes. For the preliminary screening, the promastigotes were incubated with 12 compounds at a single concentration of 5 µM for a period of 72 h, and the released LDH was estimated ( Supplementary Figure S1A ). Amphotericin B-treated promastigotes were taken as the positive control. […] Having observed the antileishmanial effect of Gly2 on growth and proliferation of promastigotes, we next investigated the cytotoxicity of Gly2 on mammalian cells (MDCK, J774.1A) through MTT (3-(4, 5-dimethylthiazolyl-2)-2, 5-diphenyltetrazolium bromide) cell viability assay ( Supplementary Figures S1B, C ). […] The CC50 values of Gly2 analog was in the micromolar range. The selectivity index (SI) for the compound was calculated as the ratio between cytotoxicity (CC50) and activity (IC50) against promastigotes ( Table 1 ).
# [3] = MTT cell viability assay on macrophages; format: cell-based, murine; details: mouse, J774.A1 macrophage cells; Table 1; macrophages
# Description: as §2, §1, §3
# [4] = tested on: L. donovani promastigotes; assay: Hoechst/PI live/dead dual staining of promastigotes; format: cell-based, Leishmania donovani; details: 5 µM, 72 h
# Description: The toxic effect of the three compounds, Gly2, 6, and 8 on promastigotes at 5 µM >IC50 concentration was measured by Hoechst and propidium iodide (PI) double staining. […], parasites were harvested, washed in 0.01 M PBS (pH = 7.4), and stained with Hoechst 33258 (1 µg/ml) (Life Technologies, USA) and PI (5 µg/ml) (Life Technologies, USA) followed by incubation for a period of 20 min at 37°C. Subsequently, cells were washed for excessive stain removal and visualized using fluorescence microscope with 510–560-nm filter block for PI red fluorescence and excitation/emission spectra at 361/497 for Hoechst ([López-Arencibia et al., 2015]).
# [5] = tested on: L. donovani intracellular amastigotes in J774.A1 macrophages; assay: Intramacrophage amastigote assay (Giemsa staining, J774.A1); format: cell-based, Leishmania donovani; details: treated at IC50 concentration, 24 h; untreated control ~5
# Description: For evaluating the efficacy of compounds against intramacrophage amastigotes, Giemsa staining (Sigma-Aldrich) was performed. J774.A1 murine macrophage cells were plated at a cell density of 5 × 10^5 cell/well in a 6-well flat bottom plate. The cells were infected with late-stage L. donovani, rich in promastigotes at a ratio of 10:1. After 6 h, uninfected promastigotes were washed off with PBS.
# [6] = Table 1, activity against promastigotes
# [7] = Leishmania donovani, AG83 promastigotes, LDH assay 72 h, sigmoidal curve, normalised to amphotericin B 3 µg/ml as 100%
# [8] = Leishmania donovani, Table 1, activity against promastigotes
Structure (SMILES),"IC50 [1, 6] [µM]",CC50 [2] [µM],"IC50 [1, 7] [µM]","IC50 [1, 8] [µM]",CC50 [3] [µM],dead parasites (PI positive) [4],number of amastigotes per infected macrophage [5]
"CCOC1O[C@H](CO)[C@@H](O)[C@H](O)[C@H]1NC(C)=O (stereo partly drawn) [Gly1, ethyl glycoside N-Acetyl-D-glucosamine]",65,248,,,,,
CCCCCCOC1O[C@H](CO)[C@@H](O)[C@H](O)[C@H]1O (stereo partly shown) [Gly3],12.7,1680,,,,,
CCCCOC1O[C@H](COC(C)=O)[C@@H](OC(C)=O)[C@H](OC(C)=O)[C@H]1OC(C)=O (stereo partly shown) [Gly4],4.6,167,,,,,
CCCCCCOC1O[C@H](COC(C)=O)[C@@H](OC(C)=O)[C@H](OC(C)=O)[C@H]1OC(C)=O (stereo partly shown) [Gly5],5.97,159,,,,,
CC(=O)OC[C@H]1OC(OCCC(C)C)[C@H](OC(C)=O)[C@@H](OC(C)=O)[C@@H]1OC(C)=O (stereo partly shown) [Gly6],,,2.94,3.4,1030,~ 33.72%,~ 3 amastigotes/macrophages
CCOC1O[C@H](COC(C)=O)[C@@H](OC(C)=O)[C@H](OC(C)=O)[C@H]1OC(C)=O (stereo partly shown) [Gly7],77,299,,,,,
"CCCOC1O[C@H](COC(C)=O)[C@@H](OC(C)=O)[C@H](OC(C)=O)[C@H]1OC(C)=O (stereo partly drawn) [Gly8, (2R,3R,4S,5R)-2-(acetoxymethyl)-6-propoxytetrahydro-2H-pyran-3,4,5-triyl triacetate]",,,1.61,1.6,959,75.47%,~2 amastigotes/macrophages
CC(=O)OC[C@H]1OC(OC(C)C)[C@H](OC(C)=O)[C@@H](OC(C)=O)[C@@H]1OC(C)=O (stereo partly shown) [Gly9],36,256,,,,,
CCCOC1O[C@H](COC(C)=O)[C@@H](OC(C)=O)[C@H](OC(C)=O)[C@H]1NC(C)=O (stereo partly shown) [Gly10],25.2,239,,,,,
CC(=O)N[C@H]1[C@@H](OCCC(C)C)O[C@H](COC(C)=O)[C@@H](OC(C)=O)[C@@H]1OC(C)=O [Gly11],43,179,,,,,
CCCCO[C@H]1O[C@H](COC(C)=O)[C@@H](OC(C)=O)[C@H](OC(C)=O)[C@H]1NC(C)=O [Gly12],95,279,,,,,
